# Laboratory results: PubChem BioAssay (NCI)
#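 Cultured in 96-well plates, cells were exposed to test compound for 48 hours across five concentrations. Abbreviation: GI50, concentration required for 50% inhibition of growth. TGI: concentration producing complete growth inhibition.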
# Experiments:
# Experiment in all cases: growth of human tumour cells (NCI), 48 h
# [1] = test system: 786-0 renal
# [2] = test system: A498 renal
# [3] = test system: A549 NSCLC
# [4] = test system: ACHN renal
# [5] = test system: BT-549 breast
# [6] = test system: CAKI-1 renal
# [7] = test system: CCRF-CEM leukemia
# [8] = test system: COLO 205 colon
# [9] = test system: DU-145 prostate
# [10] = test system: EKVX NSCLC
# [11] = test system: HCC-2998 colon
# [12] = test system: HCT-116 colon
# [13] = test system: HCT-15 colon
# [14] = test system: HL-60(TB) leukemia
# [15] = test system: HOP-62 NSCLC
# [16] = test system: HOP-92 NSCLC
# [17] = test system: HS 578T breast
# [18] = test system: IGROV1 ovarian
# [19] = test system: K-562 leukemia
# [20] = test system: KM12 colon
# [21] = test system: LOX IMVI melanoma
# [22] = test system: M14 melanoma
# [23] = test system: MALME-3M melanoma
# [24] = test system: MCF7 breast
# [25] = test system: MDA-MB-231 breast
# [26] = test system: MDA-MB-435
# [27] = test system: NCI-H226 lung
# [28] = test system: NCI-H23 lung
# [29] = test system: NCI-H460 lung
# [30] = test system: NCI-H522 lung
# [31] = test system: NCI/ADR-RES ovarian
# [32] = test system: OVCAR-3 ovarian
# [33] = test system: OVCAR-4 ovarian
# [34] = test system: OVCAR-5 ovarian
# [35] = test system: OVCAR-8 ovarian
# [36] = test system: PC-3 prostate
# [37] = test system: RPMI-8226 leukemia
# [38] = test system: RXF 393 renal
# [39] = test system: SF-268 CNS
# [40] = test system: SF-295 CNS
# [41] = test system: SF-539 CNS
# [42] = test system: SK-MEL-2 melanoma
# [43] = test system: SK-MEL-28 melanoma
# [44] = test system: SK-MEL-5 melanoma
# [45] = test system: SK-OV-3 ovarian
# [46] = test system: SN12C renal
# [47] = test system: SNB-19 CNS
# [48] = test system: SNB-75 CNS
# [49] = test system: SR leukemia
# [50] = test system: SW-620 colon
# [51] = test system: T-47D breast
# [52] = test system: TK-10 renal
# [53] = test system: U251 CNS
# [54] = test system: UACC-257 melanoma
# [55] = test system: UACC-62 melanoma
# [56] = test system: UO-31 renal
compound,measurement,setting,value
Oc1c(Cl)cc(Cl)c2ccc(Cn3cc(-c4cc(F)cc(F)c4)nn3)nc12,GI50,[1],2.09 µM
same,TGI,[1],4.84 µM
same,GI50,[2],5.78 µM
same,TGI,[2],19.6 µM
same,GI50,[3],18.8 µM
same,TGI,[3],38.4 µM
same,GI50,[4],1.73 µM
same,TGI,[4],3.14 µM
same,GI50,[5],2.51 µM
same,TGI,[5],9.49 µM
same,GI50,[6],1.78 µM
same,TGI,[6],4 µM
same,GI50,[7],0.832 µM
same,TGI,[7],> 100 µM
same,GI50,[8],2.06 µM
same,TGI,[8],4.04 µM
same,GI50,[9],2.14 µM
same,TGI,[9],4.6 µM
same,GI50,[10],11.7 µM
same,TGI,[10],25.5 µM
same,GI50,[11],13.3 µM
same,TGI,[11],29.1 µM
same,GI50,[12],1.61 µM
same,TGI,[12],3.53 µM
same,GI50,[13],2.21 µM
same,TGI,[13],5.42 µM
same,GI50,[14],2.08 µM
same,TGI,[14],5.78 µM
same,GI50,[15],17.4 µM
same,TGI,[15],34.9 µM
same,GI50,[16],1.63 µM
same,TGI,[16],4.37 µM
same,GI50,[17],3.22 µM
same,TGI,[17],20 µM
same,GI50,[18],1.82 µM
same,TGI,[18],4.18 µM
same,GI50,[19],1.09 µM
same,TGI,[19],> 100 µM
same,GI50,[20],16.3 µM
same,TGI,[20],32.1 µM
same,GI50,[21],1.31 µM
same,TGI,[21],2.68 µM
same,GI50,[22],2.02 µM
same,TGI,[22],4.92 µM
same,GI50,[23],1.84 µM
same,TGI,[23],3.74 µM
same,GI50,[24],1.54 µM
same,TGI,[24],3.62 µM
same,GI50,[25],2.71 µM
same,TGI,[25],8.65 µM
same,GI50,[26],2.8 µM
same,TGI,[26],8.47 µM
same,GI50,[27],10 µM
same,TGI,[27],29 µM
same,GI50,[28],3.5 µM
same,TGI,[28],12.8 µM
same,GI50,[29],18.8 µM
same,TGI,[29],35.8 µM
same,GI50,[30],1.72 µM
same,TGI,[30],4.83 µM
same,GI50,[31],24.1 µM
same,TGI,[31],85.3 µM
same,GI50,[32],1.66 µM
same,TGI,[32],3.2 µM
same,GI50,[33],1.87 µM
same,TGI,[33],4.43 µM
same,GI50,[34],4.01 µM
same,TGI,[34],15.4 µM
same,GI50,[35],3.42 µM
same,TGI,[35],27.2 µM
same,GI50,[36],5.26 µM
same,TGI,[36],18.8 µM
same,GI50,[37],2.19 µM
same,TGI,[37],6.36 µM
same,GI50,[38],1.36 µM
same,TGI,[38],2.99 µM
same,GI50,[39],11.3 µM
same,TGI,[39],30.3 µM
same,GI50,[40],17.8 µM
same,TGI,[40],32.9 µM
same,GI50,[41],1.63 µM
same,TGI,[41],3.08 µM
same,GI50,[42],5.19 µM
same,TGI,[42],20.2 µM
same,GI50,[43],2.01 µM
same,TGI,[43],4.18 µM
same,GI50,[44],4.1 µM
same,TGI,[44],14.9 µM
same,GI50,[45],17 µM
same,TGI,[45],31.9 µM
same,GI50,[46],4.21 µM
same,TGI,[46],16.2 µM
same,GI50,[47],11.9 µM
same,TGI,[47],25.1 µM
same,GI50,[48],2.07 µM
same,TGI,[48],11.8 µM
same,GI50,[49],2.87 µM
same,TGI,[49],> 100 µM
same,GI50,[50],1.49 µM
same,TGI,[50],3.35 µM
same,GI50,[51],2.27 µM
same,TGI,[51],7.17 µM
same,GI50,[52],2.1 µM
same,TGI,[52],4.23 µM
same,GI50,[53],7.38 µM
same,TGI,[53],21.2 µM
same,GI50,[54],1.76 µM
same,TGI,[54],4.83 µM
same,GI50,[55],3.39 µM
same,TGI,[55],14.4 µM
same,GI50,[56],2.06 µM
same,TGI,[56],9.93 µM
